Measured values taken from patent publication US10988456B2, “O-aminoheteroaryl alkynyl-containing compound, preparation method therefor, and use thereof” (SHANGHAI INSTITUTE OF MATERIA MEDICA, CHINESE ACADEMY OF …, priority 2017, dated 2021).

Columns and labels:
Assay in all cases: Inhibition of receptor tyrosine kinase activity at molecular level (ELISA, Poly(Glu,Tyr)4:1 substrate phosphorylation)
Assay type in all cases: biochemical
[1] = target: KDR (Homo sapiens, UniProt P35968); details: for 10 nM inhibition ratio KDR: 10 nM compound, average of two independent experiments
Protocol: (§1) Enzyme reaction substrate Poly(Glu, Tyr)4:1 was diluted with potassium-free PBS (10 mM sodium phosphate buffer, 150 mM NaCl, pH 7.2-7.4) to 20 μg/mL. […] The reaction was conducted under 37° C. for 12-16 hours. After the liquid was removed from the wells, the plate was washed three times with 200 μL/well of T-PBS (PBS containing 0.1% Tween-20), each for 5 minutes. The enzyme plate was dried in 37° C. dryer for 1-2 hours.
(§2) 50 μL ATP solution diluted with buffer (50 mM HEPES pH 7.4, 50 mM MgCl2, 0.5 mM MnCl2, 0.2 mM Na3VO4, 1 mM DTT) to a final concentration of 5 μM was added into each well. The compound was diluted with DMSO to a suitable concentration (1 μL/well) or the well contained the corresponding concentration of DMSO (negative control well) Then various kinase recombinant proteins diluted with 49 μL of reaction buffer was added to initiate the reaction. Each experiment required duplicate enzyme-free control well. The reaction was carried out for 1 hour on a 37° C. Shaker (100 rpm). The plate was washed three times with T-PBS. A dilution of the primary antibody PY99 was added (100 μL/well), and the reaction was conducted in a shaker at 37° C. for 0.5 hr. The plate was washed three times with T-PBS. A dilution of the horseradish peroxidase-labeled goat anti-mouse IgG secondary antibody was added (100 μL/well), and the reaction was conducted in a shaker at 37° C. for 0.5 hour. Plate was washed with T-PBS for three times. 2 mg/mL OPD coloration solution (diluted with 0.1 M citric acid-sodium citrate buffer containing 0.03% H2O2 (pH=5.4)) was added (100 μL/well), reacted for 1-10 minutes at 25° C. in dark. The reaction was quenched with 2M H2SO4 (50 μL/well), and read at 490 nm using a tunable microplate reader SPECTRA MAX 190.
(§3) The inhibition ratio of the sample was determined by the following formula: […]
(§4) The IC50 values were obtained via four-parameter regression analysis using the software supplied with the microplate reader.

[2] = target: FGFR1 (Homo sapiens, UniProt P11362); details: for 10 nM inhibition ratio FGFR1: 10 nM compound, average of two independent experiments; for inhibition ratio FGFR1 (100 nM): 100 nM compound
Protocol: as §1, §2, §3, §4

[3] = target: RET (Homo sapiens, UniProt P07949); details: for 10 nM inhibition ratio RET: 10 nM compound, average of two independent experiments
Protocol: as §1, §2, §3, §4

Sequence of RET (P07949 29-1114): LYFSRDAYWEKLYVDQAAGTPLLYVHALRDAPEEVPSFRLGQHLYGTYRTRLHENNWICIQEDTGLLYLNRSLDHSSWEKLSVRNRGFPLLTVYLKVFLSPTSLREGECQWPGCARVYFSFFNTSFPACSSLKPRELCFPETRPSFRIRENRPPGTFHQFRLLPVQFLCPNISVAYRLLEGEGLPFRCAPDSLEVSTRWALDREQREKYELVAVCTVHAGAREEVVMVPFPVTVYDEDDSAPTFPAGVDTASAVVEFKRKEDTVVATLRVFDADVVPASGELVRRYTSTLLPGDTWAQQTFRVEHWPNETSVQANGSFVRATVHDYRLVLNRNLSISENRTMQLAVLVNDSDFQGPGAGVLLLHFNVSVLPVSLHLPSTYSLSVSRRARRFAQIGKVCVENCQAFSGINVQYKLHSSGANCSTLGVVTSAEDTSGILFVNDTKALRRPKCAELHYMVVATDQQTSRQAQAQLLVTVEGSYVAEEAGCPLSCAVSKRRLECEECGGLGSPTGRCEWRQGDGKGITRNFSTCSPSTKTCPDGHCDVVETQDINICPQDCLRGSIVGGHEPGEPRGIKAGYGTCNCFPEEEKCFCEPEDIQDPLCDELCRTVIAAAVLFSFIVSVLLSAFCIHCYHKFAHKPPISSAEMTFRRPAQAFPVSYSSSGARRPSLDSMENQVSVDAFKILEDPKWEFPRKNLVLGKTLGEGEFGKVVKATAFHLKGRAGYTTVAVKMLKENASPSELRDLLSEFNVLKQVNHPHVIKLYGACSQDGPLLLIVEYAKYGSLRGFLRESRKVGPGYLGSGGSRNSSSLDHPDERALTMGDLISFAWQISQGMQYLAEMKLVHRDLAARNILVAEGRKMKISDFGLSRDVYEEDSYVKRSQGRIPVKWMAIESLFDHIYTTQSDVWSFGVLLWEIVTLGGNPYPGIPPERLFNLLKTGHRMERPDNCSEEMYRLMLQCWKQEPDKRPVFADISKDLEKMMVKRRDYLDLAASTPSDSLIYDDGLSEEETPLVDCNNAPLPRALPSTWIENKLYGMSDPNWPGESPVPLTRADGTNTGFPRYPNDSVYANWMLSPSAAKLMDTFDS
Sequence of KDR (P35968 20-1356): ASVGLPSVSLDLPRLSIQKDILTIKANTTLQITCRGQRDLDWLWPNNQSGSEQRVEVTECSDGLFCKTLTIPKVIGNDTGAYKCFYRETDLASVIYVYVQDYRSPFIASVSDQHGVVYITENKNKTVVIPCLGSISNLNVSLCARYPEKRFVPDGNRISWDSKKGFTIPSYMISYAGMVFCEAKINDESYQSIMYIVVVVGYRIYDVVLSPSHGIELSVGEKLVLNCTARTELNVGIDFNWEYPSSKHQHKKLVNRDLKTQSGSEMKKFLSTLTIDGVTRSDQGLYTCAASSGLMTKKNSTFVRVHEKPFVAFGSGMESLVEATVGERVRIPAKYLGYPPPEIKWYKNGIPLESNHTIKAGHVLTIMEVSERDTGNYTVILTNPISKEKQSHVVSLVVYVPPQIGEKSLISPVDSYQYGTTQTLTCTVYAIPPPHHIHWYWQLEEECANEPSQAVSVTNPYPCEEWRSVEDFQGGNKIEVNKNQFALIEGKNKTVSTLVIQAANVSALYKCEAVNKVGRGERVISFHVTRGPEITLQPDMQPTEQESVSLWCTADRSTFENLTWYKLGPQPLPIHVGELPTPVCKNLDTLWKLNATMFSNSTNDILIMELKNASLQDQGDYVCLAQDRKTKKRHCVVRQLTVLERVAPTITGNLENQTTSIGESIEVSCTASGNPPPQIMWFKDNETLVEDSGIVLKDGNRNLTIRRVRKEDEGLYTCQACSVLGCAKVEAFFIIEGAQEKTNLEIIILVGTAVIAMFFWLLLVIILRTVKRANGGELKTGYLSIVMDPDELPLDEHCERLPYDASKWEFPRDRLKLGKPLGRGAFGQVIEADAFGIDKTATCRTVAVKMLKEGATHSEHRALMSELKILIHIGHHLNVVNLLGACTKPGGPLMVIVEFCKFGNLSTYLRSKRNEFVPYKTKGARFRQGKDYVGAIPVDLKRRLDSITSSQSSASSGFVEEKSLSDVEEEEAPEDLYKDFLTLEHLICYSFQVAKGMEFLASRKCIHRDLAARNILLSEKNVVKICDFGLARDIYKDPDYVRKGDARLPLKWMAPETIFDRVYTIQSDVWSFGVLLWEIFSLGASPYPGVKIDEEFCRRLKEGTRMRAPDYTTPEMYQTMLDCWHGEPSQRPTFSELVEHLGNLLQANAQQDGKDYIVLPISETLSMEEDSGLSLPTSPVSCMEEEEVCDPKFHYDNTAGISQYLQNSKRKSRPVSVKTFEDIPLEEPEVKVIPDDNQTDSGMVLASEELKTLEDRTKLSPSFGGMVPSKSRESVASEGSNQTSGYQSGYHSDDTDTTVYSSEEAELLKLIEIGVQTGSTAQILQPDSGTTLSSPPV
Sequence of FGFR1 (P11362 22-822): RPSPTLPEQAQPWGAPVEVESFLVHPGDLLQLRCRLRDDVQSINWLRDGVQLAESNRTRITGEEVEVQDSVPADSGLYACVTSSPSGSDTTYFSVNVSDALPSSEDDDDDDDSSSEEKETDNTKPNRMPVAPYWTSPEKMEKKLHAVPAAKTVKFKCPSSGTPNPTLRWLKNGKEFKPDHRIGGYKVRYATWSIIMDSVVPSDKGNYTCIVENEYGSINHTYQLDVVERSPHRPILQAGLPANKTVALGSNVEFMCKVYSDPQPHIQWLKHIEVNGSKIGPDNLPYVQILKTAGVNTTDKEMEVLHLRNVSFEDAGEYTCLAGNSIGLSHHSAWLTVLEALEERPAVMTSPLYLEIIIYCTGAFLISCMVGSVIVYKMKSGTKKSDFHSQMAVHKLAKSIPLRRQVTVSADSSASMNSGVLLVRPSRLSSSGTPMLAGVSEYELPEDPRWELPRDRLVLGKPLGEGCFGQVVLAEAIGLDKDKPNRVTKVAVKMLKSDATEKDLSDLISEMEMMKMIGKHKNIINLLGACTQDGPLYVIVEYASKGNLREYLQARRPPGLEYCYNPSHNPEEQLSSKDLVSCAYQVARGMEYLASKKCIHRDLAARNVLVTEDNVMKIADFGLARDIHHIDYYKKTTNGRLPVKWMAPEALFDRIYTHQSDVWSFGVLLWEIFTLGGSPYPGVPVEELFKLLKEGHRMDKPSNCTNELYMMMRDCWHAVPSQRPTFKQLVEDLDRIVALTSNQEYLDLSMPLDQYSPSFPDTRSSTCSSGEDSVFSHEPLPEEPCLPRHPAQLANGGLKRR

Structure (SMILES)	10 nM inhibition ratio KDR [1]	10 nM inhibition ratio FGFR1 [2]	10 nM inhibition ratio RET [3]	inhibition ratio FGFR1 (100 nM) [2]	inhibition ratio KDR (100 nM) ([1]; 100 nM compound)	inhibition ratio RET (100 nM) ([3]; 100 nM compound)
CN1CCN(Cc2ccc(NC(=O)c3ccc(Cl)c(C#Cc4cc(OCCO)cnc4N)c3)cc2C(F)(F)F)CC1 [Example 26]	24.3	77.2	79.4			
COCCOc1cnc(N)c(C#Cc2cc(C(=O)Nc3ccc(CN4CCN(C)CC4)c(C(F)(F)F)c3)ccc2Cl)c1 [Example 27]	34.1	78.2	69.5			
CNCCOc1cnc(N)c(C#Cc2cc(C(=O)Nc3ccc(CN4CCN(C)CC4)c(C(F)(F)F)c3)ccc2Cl)c1 [Example 28]	28.7	68.5	79.3			
CN(C)CCOc1cnc(N)c(C#Cc2cc(C(=O)Nc3ccc(CN4CCN(C)CC4)c(C(F)(F)F)c3)ccc2Cl)c1 [Example 29]	14.3	44.9	55.2			
CN1CCN(Cc2ccc(NC(=O)c3ccc(Cl)c(C#Cc4cc(CO)cnc4N)c3)cc2C(F)(F)F)CC1 [Example 30]	5.8	55.2	77.8			
COCc1cnc(N)c(C#Cc2cc(C(=O)Nc3ccc(CN4CCN(C)CC4)c(C(F)(F)F)c3)ccc2Cl)c1 [Example 31]	35.1	59.3	67.8			
CN1CCN(Cc2ccc(NC(=O)c3ccc(Cl)c(C#Cc4cc(COC(F)(F)F)cnc4N)c3)cc2C(F)(F)F)CC1 [Example 32]	37.2	66.3	70.8			
CNCc1cnc(N)c(C#Cc2cc(C(=O)Nc3ccc(CN4CCN(C)CC4)c(C(F)(F)F)c3)ccc2Cl)c1 [Example 33]	35.1	49.8	77.8			
CN(C)Cc1cnc(N)c(C#Cc2cc(C(=O)Nc3ccc(CN4CCN(C)CC4)c(C(F)(F)F)c3)ccc2Cl)c1 [Example 34]	18.0	44.3	57.8			
CNc1cnc(N)c(C#Cc2cc(C(=O)Nc3ccc(CN4CCN(C)CC4)c(C(F)(F)F)c3)ccc2Cl)c1 [Example 35]	32.1	57.9	44.3			
CN1CCN(Cc2ccc(NC(=O)c3ccc(Cl)c(C#Cc4cc(N(C)C)cnc4N)c3)cc2C(F)(F)F)CC1 [Example 36]	12.1	49.9	56.3			
CC(=O)Nc1cnc(N)c(C#Cc2cccc(C(=O)Nc3ccc(CN4CCN(C)CC4)c(C(F)(F)F)c3)c2)c1 [Example 37]	33.2	48.1	66.3			
CN1CCN(Cc2ccc(NC(=O)c3cccc(C#Cc4cc(NC(=O)C5CC5)cnc4N)c3)cc2C(F)(F)F)CC1 [Example 38]	44.1	51.8	65.3			
C=CC(=O)Nc1cnc(N)c(C#Cc2cc(C(=O)Nc3ccc(CN4CCN(C)CC4)c(C(F)(F)F)c3)ccc2Cl)c1 [Example 39]	36.4	53.4	88.0			
CN(C)CC=CC(=O)Nc1cnc(N)c(C#Cc2cc(C(=O)Nc3ccc(CN4CCN(C)CC4)c(C(F)(F)F)c3)ccc2Cl)c1 [Example 40]	36.6	58.2	77.3			
CN1CCC(Oc2ccc(NC(=O)c3ccc(Cl)c(C#Cc4cccnc4N)c3)cc2C(F)(F)F)CC1 [Example 41]	35.4	53.4	77.3			
CN1CCN(Cc2ccc(NC(=O)c3ccc(Cl)c(C#Cc4nccnc4N)c3)cc2C(F)(F)F)CC1 [Example 46]	43.1	48.5	95.1			
CN1CCN(Cc2ccc(NC(=O)c3cccc(C#Cc4nc(F)cnc4N)c3)cc2C(F)(F)F)CC1 [Example 47]	40.8	55.1	89.1			
CN1CCN(Cc2ccc(NC(=O)c3cccc(C#Cc4nc(CO)cnc4N)c3)cc2C(F)(F)F)CC1 [Example 48]	34.3	48.7	78.0			
CN1CCN(Cc2ccc(NC(=O)c3ccc(Cl)c(C#Cc4c(F)ccnc4N)c3)cc2C(F)(F)F)CC1 [Example 49]	33.2	77.1	69.5			
CC(C)(C)OC(=O)N1CCN(Cc2ccc(NC(=O)c3ccc(Cl)c(C#Cc4cccnc4N)c3)cc2C(F)(F)F)CC1 [Example 50]	27.8	56.3	55.1			
Nc1ncccc1C#Cc1cc(C(=O)Nc2ccc(CN3CCNCC3)c(C(F)(F)F)c2)ccc1Cl [Example 51]	38.2	67.9	79.4			
CN1CCN(Cc2ccc(NC(=O)c3ccc(Cl)c(C#Cc4cccnc4N)c3)cc2C(F)(F)F)CC1.Cl [Example 52]	40.2	75.2	89.3			
[2H]C([2H])([2H])N1CCN(Cc2ccc(NC(=O)c3ccc(Cl)c(C#Cc4cccnc4N)c3)cc2C(F)(F)F)CC1 [Example 53]	42.1	78.3	87.0			
CNc1cncc(C#Cc2cc(C(=O)Nc3ccc(CN4CCN(C)CC4)c(C(F)(F)F)c3)ccc2C)c1 [Example A34, reference compound]	39.5	33.2	16.4			
Cc1ncccc1C#Cc1cc(C(=O)Nc2ccc(CN3CCN(C)CC3)c(C(F)(F)F)c2)ccc1Cl [HuFGFR143, reference compound]	26.4		35.2	19.9		
COc1ncccc1C#Cc1cc(C(=O)Nc2ccc(CN3CCN(C)CC3)c(C(F)(F)F)c2)ccc1Cl [HuFGFR148, reference compound]	18.2		21.7	22.4		
CN1CCN(Cc2ccc(NC(=O)c3ccc(Cl)c(C#Cc4cccnc4F)c3)cc2C(F)(F)F)CC1 [HuFGFR150, reference compound]	32.3	35.1	30.3			
CN1CCN(Cc2ccc(NC(=O)c3ccc(Cl)c(C#Cc4ccc(N)nc4)c3)cc2C(F)(F)F)CC1 [HuFGFR151, reference compound]				21.1	23.9	29.7
